# System: NL4-3 infected resting CD4+ T cells
# Assay: Intracellular HIV Gag staining (flow cytometry) of resting CD4+ T cells directly infected with NL4-3, day 3 post-infection
# Assay type: cell-based
# Settings: resting CD4+ T cells infected with NL4-3 by spinoculation, cultured in the presence of the compound, three days postinfection
# Protocol: Quiescent CD4+ T cells in the G0/1a stage of the life cycle were enriched by depletion of lineage and activation markers (39, 40). Cells were infected with NL4-3 by spinoculation (32) and cultured in the absence of activating cytokines and in the presence of the protease inhibitor saquinavir (17, 39). dNs were added to infected cultures to overcome SAMHD1− mediated restriction that has been described in resting T cells (33, 41, 42). Three days postinfection cells were stained with LIVE/DEAD aqua and stained for surface markers with antibodies against CD3 (AF700), CD4 (PECy5.5), and CD25/CD69/HLA-DR (APC). Cells were then fixed, permeabilized and stained for HIV Gag. […] Consistent with our previous work, the cultured Gag+ cells lacked the activation markers CD25, CD69 and HLA-DR at day 3. […] The level of integrated HIV DNA was determined to be 0.32 copies per cell in the bulk culture (termed whole culture, WC). Gag+CD4− cells contained 1.2 HIV proviruses per cell, which represented an enrichment of integrated HIV DNA in Gag+CD4− cells compared to Gag− cell populations (Gag−CD4− cells contained 0.013 copies, Gag−CD4int cells contained 0.11 copies, and Gag− CD4+ cells contained 0.24 copies of integrated HIV DNA per cell).
smiles,measurement,value
Cc1nnc(C(=O)NC(C)(C)c2nc(C(=O)NCc3ccc(F)cc3)c(O)c(=O)n2C)o1 [raltegravir],Gag staining of infected cells,very low Gag staining

# — patent US10620112B2, “Measuring HIV reservoirs with optical scanning” (SRI INTERNATIONAL, priority 2015, dated 2020)
